# Assay results: publication PMC10088252
# Settings: 400 mg BID (n=4)
smiles,measurement,value
O=C(Nc1ccc(Oc2ccnc3c2CCN3)c(F)c1)c1c[nH]cc(-c2ccc(F)cc2)c1=O,"TRAE Dyskinesia, any grade",0 n (%)
same,"TRAE Dyskinesia, grade 3-4",0 n (%)
same,"TRAE Dysphonia, any grade",0 n (%)
same,"TRAE Dysphonia, grade 3-4",0 n (%)
same,"TRAE Dyspnoea, any grade",0 n (%)
same,"TRAE Dyspnoea, grade 3-4",0 n (%)
same,"TRAE Electrocardiogram QT prolonged, any grade",0 n (%)
same,"TRAE Electrocardiogram QT prolonged, grade 3-4",0 n (%)
same,"TRAE Elevated ALT, any grade",3 (75.0) n (%)
same,"TRAE Elevated ALT, grade 3-4",0 n (%)
same,"TRAE Elevated AST, any grade",3 (75.0) n (%)
same,"TRAE Elevated AST, grade 3-4",0 n (%)
same,"TRAE Elevated D dimer, any grade",0 n (%)
same,"TRAE Elevated D dimer, grade 3-4",0 n (%)
same,"TRAE Elevated GGT, any grade",1 (25.0) n (%)
same,"TRAE Elevated GGT, grade 3-4",0 n (%)
same,"TRAE Elevated LDH, any grade",1 (25.0) n (%)
same,"TRAE Elevated LDH, grade 3-4",0 n (%)
same,"TRAE Elevated alpha-HBDH, any grade",1 (25.0) n (%)
same,"TRAE Elevated alpha-HBDH, grade 3-4",0 n (%)
same,"TRAE Elevated bilirubin, any grade",1 (25.0) n (%)
same,"TRAE Elevated bilirubin, grade 3-4",0 n (%)
same,"TRAE Elevated blood creatinine, any grade",1 (25.0) n (%)
same,"TRAE Elevated blood creatinine, grade 3-4",0 n (%)
same,"TRAE Elevated creatine phosphokinase, any grade",2 (50.0) n (%)
same,"TRAE Elevated creatine phosphokinase, grade 3-4",0 n (%)
same,"TRAE Elevated serum urea, any grade",0 n (%)
same,"TRAE Elevated serum urea, grade 3-4",0 n (%)
same,"TRAE Elevated troponin, any grade",0 n (%)
same,"TRAE Elevated troponin, grade 3-4",0 n (%)
same,"TRAE Genital rash, any grade",0 n (%)
same,"TRAE Genital rash, grade 3-4",0 n (%)
same,"TRAE Haematuria, any grade",0 n (%)
same,"TRAE Haematuria, grade 3-4",0 n (%)
same,"TRAE Headache, any grade",0 n (%)
same,"TRAE Headache, grade 3-4",0 n (%)
same,"TRAE Hyperhidrosis, any grade",0 n (%)
same,"TRAE Hyperhidrosis, grade 3-4",0 n (%)
same,"TRAE Hyperlipidaemia, any grade",1 (25.0) n (%)
same,"TRAE Hyperlipidaemia, grade 3-4",0 n (%)
same,"TRAE Hypertension, any grade",1 (25.0) n (%)
same,"TRAE Hypertension, grade 3-4",0 n (%)
same,"TRAE Hypoaesthesia oral, any grade",0 n (%)
same,"TRAE Hypoaesthesia oral, grade 3-4",0 n (%)
same,"TRAE Hypocalcaemia, any grade",0 n (%)
same,"TRAE Hypocalcaemia, grade 3-4",0 n (%)
same,"TRAE Hypotension, any grade",0 n (%)
same,"TRAE Hypotension, grade 3-4",0 n (%)
same,"TRAE Insomnia, any grade",0 n (%)
same,"TRAE Insomnia, grade 3-4",0 n (%)
same,"TRAE Leukopenia, any grade",1 (25.0) n (%)
same,"TRAE Leukopenia, grade 3-4",0 n (%)
same,"TRAE Nausea, any grade",0 n (%)
same,"TRAE Nausea, grade 3-4",0 n (%)
same,"TRAE Neuritis, any grade",0 n (%)
same,"TRAE Neuritis, grade 3-4",0 n (%)
same,"TRAE Occult blood, any grade",0 n (%)
same,"TRAE Occult blood, grade 3-4",0 n (%)
same,"TRAE Oedema peripheral, any grade",0 n (%)
same,"TRAE Oedema peripheral, grade 3-4",0 n (%)
same,"TRAE Onycholysis, any grade",0 n (%)
same,"TRAE Onycholysis, grade 3-4",0 n (%)
same,"TRAE Oropharyngeal pain, any grade",0 n (%)
same,"TRAE Oropharyngeal pain, grade 3-4",0 n (%)
same,"TRAE PPE, any grade",4 (100.0) n (%)
same,"TRAE PPE, grade 3-4",3 (75.0) n (%)
same,"TRAE Paraesthesia, any grade",0 n (%)
same,"TRAE Paraesthesia, grade 3-4",0 n (%)
same,"TRAE Proteinuria, any grade",0 n (%)
same,"TRAE Proteinuria, grade 3-4",0 n (%)
same,"TRAE Pruritus, any grade",0 n (%)
same,"TRAE Pruritus, grade 3-4",0 n (%)
same,"TRAE Rash maculo-papular, any grade",0 n (%)
same,"TRAE Rash maculo-papular, grade 3-4",0 n (%)
same,"TRAE Sinus tachycardia, any grade",0 n (%)
same,"TRAE Sinus tachycardia, grade 3-4",0 n (%)
same,"TRAE Skin fissures, any grade",0 n (%)
same,"TRAE Skin fissures, grade 3-4",0 n (%)
same,"TRAE Supraventricular extrasystoles, any grade",0 n (%)
same,"TRAE Supraventricular extrasystoles, grade 3-4",0 n (%)
same,"TRAE Thrombocytopenia, any grade",2 (50.0) n (%)
same,"TRAE Thrombocytopenia, grade 3-4",1 (25.0) n (%)
same,"TRAE Upper respiratory tract infection, any grade",0 n (%)
same,"TRAE Upper respiratory tract infection, grade 3-4",0 n (%)
